Values after ≈ are worked out from the molar mass of the structure shown. Read-outs that look alike come from different tables or passages of the source.
Legend:
[1] = system: pathogenic herpesvirus isolated from tortoises; design: method as in PMID 9323927; conditions: doses of 25 or 50 µg/mL, turtle heart cell cultures; cited from earlier work
GTSV [2] = assay: CPE reduction assay in DPHt cells; type: cell-based, Green tree python serpentovirus; conditions: average ± SD; for EC50: read-out: EC50 (50% effective concentration, CPE reduction assay)
From the text: (§1) Ribavirin was obtained from ICN Pharmaceuticals, Inc. (now Bausch Health, Laval, QC, Canada). Favipiravir was purchased from AdooQ Bioscience (Irvine, CA, USA). NITD-008 was supplied by BEI Resources (Manassas, VA, USA). Enviroximine was purchased from Cayman Chemical (Ann Arbor, MI, USA), and pirodavir was purchased from Med Chem Express (Monmouth Junction, NJ, USA). Infergen (Interferon-alfacon-1), a human consensus interferon, was provided by InterMune, Inc (Brisbane, CA, USA) as an aqueous solution. Solid compounds were dissolved in DMSO at a 20× concentration to yield a final DMSO concentration of <10%. Further dilutions were performed in culture media.
(§2) Diamond python heart cells (DPHt) were grown as described above. Cells were plated in 96-well microtiter plates and grown overnight prior to the addition of the virus and test compounds. A CPE assay was conducted to determine the activity of various antiviral against BPNV, GTSV, and AnPSN. Serial half-log dilutions of the test compounds were made and added to 5 wells of the 96-well plate. Culture media was added to two wells to determine the 50% cytotoxic concentration (CC50), and the virus was added to the other three wells to determine the 50% effective concentrations (EC50). Virus and cell controls were included with each plate. The selective index was determined by dividing the CC50 by the EC50/90 to determine the SI50/90. Two to three replicates of the assays were used to evaluate each compound.

BPNV [3] = assay: CPE reduction assay in DPHt cells; type: cell-based, Ball python nidovirus; conditions: average ± SD; for EC50: Ball python nidovirus, read-out: EC50 (50% effective concentration, CPE reduction assay)
From the text: as §1, §2

AnPSV [4] = assay: CPE reduction assay in DPHt cells; type: cell-based, Antaresian python serpentovirus; conditions: average ± SD; for EC50: read-out: EC50 (50% effective concentration, CPE reduction assay)
From the text: as §1, §2

[5] = system: Diamond python heart cells (DPHt); assay: Cytotoxicity in uninfected wells of the CPE assay; type: cell-based, Diamond python (Morelia spilota spilota)
Experimental: as §2, with “compound. A confirmatory virus yield reduction (VYR) assay was conducted where supernatant from the CPE assay was collected and titered on DPHt cells to determine the 90% effective concentration (EC90), or the concentration of compound required to reduce the virus titer by one Log10.” for “compound.”

[6] = Cytotoxicity in uninfected wells of the CPE assay; type: cell-based, Diamond python (Morelia spilota spilota); conditions: Diamond python (Morelia spilota spilota), CC50 (50% cytotoxic concentration)
Experimental: as §2, with “compound. A confirmatory virus yield reduction (VYR) assay was conducted where supernatant from the CPE assay was collected and titered on DPHt cells to determine the 90% effective concentration (EC90), or the concentration of compound required to reduce the virus titer by one Log10.” for “compound.”

BPNV [7] = assay: Virus yield reduction (VYR) assay, supernatant titered on DPHt cells; type: cell-based, Ball python nidovirus; conditions: for EC90: Ball python nidovirus, read-out: EC90 (90% effective concentration, virus yield reduction assay)
[8] = design: method as in PMID 19918064; conditions: dogs; development ceased; cited from earlier work
AnPSV [9] = assay: Virus yield reduction (VYR) assay, supernatant titered on DPHt cells; type: cell-based, Antaresian python serpentovirus; conditions: for EC90: read-out: EC90 (90% effective concentration, virus yield reduction assay)
GTSV [10] = assay: as above; type: cell-based, Green tree python serpentovirus; conditions: for EC90: read-out: EC90 (90% effective concentration, virus yield reduction assay)
Dengue virus = system: Dengue virus; design: method as in PMID 19918064; conditions: animal models; cited from earlier work
AnPNV, BPNV, and GTSV = assay: CPE reduction assay, summary for all three serpentoviruses; type: cell-based, Ophidian serpentoviruses
From the text: as §1
as §2, with “compound. A confirmatory virus yield reduction (VYR) assay was conducted where supernatant from the CPE assay was collected and titered on DPHt cells to determine the 90% effective concentration (EC90), or the concentration of compound required to reduce the virus titer by one Log10.” for “compound.”

[11] = design: method as in PMID 19918064; conditions: rats; development ceased; cited from earlier work
[12] = design: method as in PMID 17168855; conditions: long-term treatment; cited from earlier work
[13] = Diamond python (Morelia spilota spilota)

Molecule | EC50 (50% effective concentration, CPE reduction assay) (GTSV [2]) [µg/mL] | EC50 (50% effective concentration, CPE reduction assay) (BPNV [3]) [µg/mL] | EC50 (50% effective concentration, CPE reduction assay) (AnPSV [4]) [µg/mL] | EC50 (GTSV [2]) [µg/mL] | CC50 (50% cytotoxic concentration) [5, 13] [µg/mL] | CC50 [6] [µg/mL] | EC50 (BPNV [3]) [µg/mL] | EC50 (AnPSV [4]) [µg/mL] | antiviral activity (in words) (AnPNV, BPNV, and GTSV) | other results
Nc1nc2c(ncn2COCCO)c(=O)[nH]1 [Acyclovir] |  |  |  |  |  |  |  |  |  | activity (in words) [1]: active
CC(C)S(=O)(=O)n1c(N)nc2ccc(/C(=N/O)c3ccccc3)cc21 [Enviroximine] | >4.9 | >0.38 | >0.24 |  |  |  |  |  |  | 
NC(=O)c1nc(F)c[nH]c1=O [Favipiravir] |  |  |  | > 320 | >320 | > 320 | > 320 | > 320 |  | 
C#C[C@@]1(O)[C@H](O)[C@@H](CO)O[C@H]1n1ccc2c(N)ncnc21 [NITD-008] | 1.4 ± 0.8 (≈ 4.82 µM) | 0.7 ± 0.4 (≈ 2.41 µM) | 0.6 ± 0.3 (≈ 2.07 µM) |  |  |  |  |  | potent antiviral activity | EC90 (90% effective concentration, virus yield reduction assay) (BPNV [7]): 1.5 µg/mL (≈ 5.17 µM); toxicity (in words) [8]: toxicity was observed; EC90 (90% effective concentration, virus yield reduction assay) (AnPSV [9]): 0.76 µg/mL (≈ 2.62 µM); EC90 (90% effective concentration, virus yield reduction assay) (GTSV [10]): 4.8 µg/mL (≈ 16.5 µM); CC50 (50% cytotoxic concentration) ([5]; DPHt cells, table line of AnPSV): 33 ± 9.0 µg/mL (≈ 114 µM); CC50 (50% cytotoxic concentration) ([5]; DPHt cells, table line of BPNV): 37 ± 26 µg/mL (≈ 127 µM); CC50 (50% cytotoxic concentration) ([5]; DPHt cells, table line of GTSV): 55 ± 42 µg/mL (≈ 189 µM); efficacy (in words) (Dengue virus): showed promise; toxicity (in words) [11]: toxicity was observed
CCOC(=O)c1ccc(OCCC2CCN(c3ccc(C)nn3)CC2)cc1 [Pirodavir, pirodavir] |  |  |  | 0.86 (≈ 2.33 µM) | >10 | 7.3 (≈ 19.8 µM) | 2.6 (≈ 7.04 µM) | 1.1 (≈ 2.98 µM) |  | 
CCC(CC)COC(=O)[C@H](C)N[P@](=O)(OC[C@H]1O[C@@](C#N)(c2ccc3c(N)ncnn23)[C@H](O)[C@@H]1O)Oc1ccccc1 [Remdesivir] |  |  |  | < 0.022 | 2.3 ± 1.8 (≈ 3.82 µM) | 2.2 ± 1.6 (≈ 3.65 µM) | < 0.022 | < 0.022 | potent antiviral activity | EC90 (BPNV [7]): < 0.001 µg/mL; EC90 (AnPSV [9]): < 0.001 µg/mL; EC90 (GTSV [10]): < 0.001 µg/mL
NC(=O)c1ncn([C@@H]2O[C@H](CO)[C@@H](O)[C@H]2O)n1 [Ribavirin] |  |  |  | 7.9 ± 3 (≈ 32.3 µM) | >1000 | > 1000 | 0.9 ± 0.2 (≈ 3.69 µM) | 2 ± 0.3 (≈ 8.19 µM) | potent antiviral activity | EC90 (BPNV [7]; BPNV, concentration reducing virus titer by one Log10): 1.6 µg/mL (≈ 6.55 µM); EC90 (AnPSV [9]; AnPSV, concentration reducing virus titer by one Log10): 12 µg/mL (≈ 49.1 µM); EC90 (GTSV [10]; GTSV, concentration reducing virus titer by one Log10): 14 µg/mL (≈ 57.3 µM); adverse effect (in words) [12]: associated with anemia
Nc1nc(O)c2ncn(COC(CO)CO)c2n1 [ganciclovir] |  |  |  |  |  |  |  |  |  | activity (in words) [1]: active
Interferon-alfacon-1 [Infergen] | >0.01 | >0.01 | >0.01 |  |  |  |  |  |  | CC50 (50% cytotoxic concentration) [5]: 0.01 µg/mL

— article PMC10305148, “In Vitro Characterization and Antiviral Susceptibility of Ophidian Serpentoviruses” (Microorganisms, 2023)
